Measurements as given in patent publication US10059740B2, “Integrin interaction inhibitors for the treatment of cancer” (H. LEE MOFFITT CANCER CENTER AND RESEARCH INSTITUTE, INC., priority 2010, dated 2018).
Read-outs that look alike come from different tables or passages of the source. Each block holds one molecule with its values, some of them ahead of it. Starred links: 1 amine or outer side, 2 acyl side, 3 side chain; linkers in the order of their positions; H or OH if unused. Positions of bridges follow the written chain, without caps; N, C: chain ends. Non-standard residues stand in square brackets, D forms with d. Residues, ends and D or L forms follow the SMILES beside them. No end group written: not given here. *: point of attachment. T1 = NH2CH2CH2N(SO2Me)CH2COOH, methylsulfonamido aminoethyl glycine linker; dProlinol(O-CH2CO) = O=C(COC[C@H]1CCCN1[*:1])[*:2]; N(2-Aminoethyl)Gly = O=C(CN(CCN[*:3])[*:1])[*:2]; Nle = CCCC[C@H](N)C(=O)O; Ms = CS(=O)(=O)*; Sar = CNCC(=O)O

Test system: H929 myeloma cells
Assay type: cell-based
Conditions: for activity relative to linear parent peptide (linear D-HYD1): in words
Protocol: H929 cells were treated for 24 hours with varying concentrations of peptide. Cell death was measured by Topro-3 staining and FACS analysis. The IC50 values were obtained from linear regression analysis and an average value was obtained from 3 independent experiments.
Table 4 legend: Structure activity relationship in H929 myeloma cells of cyclic INTEGRIN INTERACTION INHIBITORS derivatives. The minimal bioactive core sequence of INTEGRIN INTERACTION INHIBITORS WSVVM (SEQ ID NO:85) was cyclized using 2 novel reduced amide bond beta turn promoters and KLKLK (SEQ ID NO:27) as the non-recognition sequence. H929 cells were treated with varying concentrations of the indicated peptide for 24 h. Cell viability was determined using Topro-3 staining and FACS analysis after drug treatment. IC50 values were generated from linear regressions generated from the dose response curves (n=mean of 3 independent experiments).
Using combinatorial peptide libraries and a functional binding assay, several peptides have been identified that inhibited α2β1 and α6β1 integrin mediated adhesion of prostate cancer cells to fibronectin, laminin and collagen IV.^1 They identified an all D-amino acid containing peptide referred as HYD1 ([…]) (SEQ ID NO:278) that blocks binding of epithelial prostate carcinoma cells to extracellular matrix components.^2,3 Hazlehurst and co-workers have truncated the N- and C-termini and alanine scan studies identified MVISW (SEQ ID NO:279) as the likely core region of linear D-HYD1 required for biological activity. […] The pentapeptide (KLKLK) (SEQ ID NO:27) was selected as the non-recognition strand to improve the solubility. N- to C-terminus cyclization of linear peptides was done to restrict the number of conformations available to the linear peptide which increases the affinity of the cyclized peptide for its target when the constraint stabilizes the bound conformation of the peptide. We synthesized cyclic D-HYD1 using a novel methylsulfonamide aminoethyl glycine linker T1 that connects two anti-parallel strands. […] The inverso- (peptide 2, Table 4) and partially modified retro-inverso (PMRI) (peptide 10) pentapeptide sequences of the recognition strand of cyclic III (Integrin Interaction Inhibitors also known as cyclic L-HYD1) peptide analogs were subsequently investigated for their potential to block beta integrin mediated cell adhesion. The retro-inverso design of biologically active peptides is a well-known strategy to design all D-amino acid peptides from potentially bioactive all L-peptide sequences with increased stability^4-7.
A colony forming assay was used to compare induced cell death in H929 multiple myeloma cells. Cells were treated with integrin interaction inhibitors, shown in FIG. 5 and Table 4, and cell death was measured following 24 hour peptide treatment by TOPRO-3 staining and FACS analysis.

[1] = cyclic III peptide analogs, Table 8, H929 cells, TOPRO 3, read-out: IC50

IC50 (24 h): 18 µM
Molecule: CCCC[C@@H]1NC(=O)CN(S(C)(=O)=O)CCNC(=O)[C@H](CCCCN)NC(=O)[C@H](CC(C)C)NC(=O)[C@H](CCCCN)NC(=O)[C@H](CCC(N)=O)NC(=O)[C@H](CCCCN)NC(=O)COC[C@H]2CCCN2C(=O)[C@H](Cc2c[nH]c3ccccc23)NC(=O)[C@H](C)NC(=O)[C@H](C(C)C)NC(=O)[C@H](C(C)C)NC1=O [Peptide 20, KQKLKT1N*VVAWT3] (Ms-[N(2-Aminoethyl)Gly][Nle]VVAW[dProlinol(O-CH2CO)]KQKLK; lactam 1-C)

IC50 (24 h): 25 µM
Molecule: CCCC[C@@H]1NC(=O)CN(S(C)(=O)=O)CCNC(=O)[C@H](CCCCN)NC(=O)[C@H](CCC(N)=O)NC(=O)[C@H](CCCCN)NC(=O)[C@H](CC(C)C)NC(=O)[C@H](CCCCN)NC(=O)COC[C@H]2CCCN2C(=O)[C@H](Cc2c[nH]c3ccccc23)NC(=O)[C@H](C)NC(=O)[C@H](C(C)C)NC(=O)[C@H](C(C)C)NC1=O [Peptide 21, KLKQKT1N*VVAWT3] (Ms-[N(2-Aminoethyl)Gly][Nle]VVAW[dProlinol(O-CH2CO)]KLKQK; lactam 1-C)

Molecule: CCCC[C@@H]1NC(=O)[C@H](C(C)C)NC(=O)[C@H](C(C)C)NC(=O)[C@H](C)NC(=O)[C@H](Cc2c[nH]c3ccccc23)NC(=O)COC[C@H]2CCCN2C(=O)[C@H](CCCCN)NC(=O)CN(C)C(=O)[C@H](CCCCN)NC(=O)CN(C)C(=O)[C@H](CCCCN)NC(=O)COC[C@H]2CCCN2C1=O [Peptide 23, KXKXKT3WAVVN*T3] (cyclo(K[Sar]K[Sar]K[dProlinol(O-CH2CO)]WAVV[Nle][dProlinol(O-CH2CO)]))
bioactivity of cyclic III peptide analogs, in words (SAR discussion of Table 8): poor bioactivity

Molecule: CCCC[C@@H]1NC(=O)CN(S(C)(=O)=O)CCNC(=O)[C@H](CCCCN)NC(=O)[C@H](CC(C)C)NC(=O)[C@H](CCCCN)NC(=O)[C@H](CC(C)C)NC(=O)[C@H](CCCCN)NC(=O)COC[C@H]2CCCN2C(=O)[C@H](Cc2c[nH]c3ccccc23)NC(=O)[C@H](C)NC(=O)[C@H](CC(C)C)NC(=O)[C@H](C(C)C)NC1=O [Peptide 24, KLKLKT1N*VLAWT3] (Ms-[N(2-Aminoethyl)Gly][Nle]VLAW[dProlinol(O-CH2CO)]KLKLK; lactam 1-C)
IC50 [1]: 10 µM

Molecule: CCCC[C@@H]1NC(=O)CN(S(C)(=O)=O)CCNC(=O)[C@H](CCCCN)NC(=O)[C@H](CC(C)C)NC(=O)[C@H](CCCCN)NC(=O)[C@H](CC(C)C)NC(=O)[C@H](CCCCN)NC(=O)COC[C@H]2CCCN2C(=O)[C@H](Cc2c[nH]c3ccccc23)NC(=O)[C@H](C)NC(=O)[C@H]([C@@H](C)CC)NC(=O)[C@H](C(C)C)NC1=O [Peptide 25, KLKLKT1N*VIAWT3] (Ms-[N(2-Aminoethyl)Gly][Nle]VIAW[dProlinol(O-CH2CO)]KLKLK; lactam 1-C)
IC50 [1]: 10 µM

Molecule: CCCC[C@@H]1NC(=O)CN(S(C)(=O)=O)CCNC(=O)[C@H](CCCCN)NC(=O)[C@H](CC(C)C)NC(=O)[C@H](CCCCN)NC(=O)[C@H](CC(C)C)NC(=O)[C@H](CCCCN)NC(=O)COC[C@H]2CCCN2C(=O)[C@H](Cc2c[nH]c3ccccc23)NC(=O)[C@H](C)NC(=O)[C@H](Cc2ccccc2)NC(=O)[C@H](C(C)C)NC1=O [Peptide 26, KLKLKT1N*VFAWT3] (Ms-[N(2-Aminoethyl)Gly][Nle]VFAW[dProlinol(O-CH2CO)]KLKLK; lactam 1-C)
IC50 [1]: 9 µM

Molecule: CSCC[C@H]1NC(=O)CN(S(C)(=O)=O)CCNC(=O)[C@@H](CCCCN)NC(=O)[C@@H](CC(C)C)NC(=O)[C@@H](CCCCN)NC(=O)[C@@H](CC(C)C)NC(=O)[C@@H](CCCCN)NC(=O)CN(S(C)(=O)=O)CCNC(=O)[C@@H](Cc2c[nH]c3ccccc23)NC(=O)[C@@H](CO)NC(=O)[C@@H](C(C)C)NC(=O)[C@@H](C(C)C)NC1=O [cyclic D-HYD1]
activity relative to linear parent peptide (linear D-HYD1) (H929 cells): twice as active
activity relative to linear parent peptide (linear D-HYD1) (H929 cells, listed as c-D-HYD1): about twice as active

Molecule: L-HYD1: the inverso (L-HYD1) cyclic compound (cyclo(KLKLKMVVSW)-T1; not fully specified (residue 5))
potency relative to cyclic D-HYD1 (H929 cells): 2 fold

Molecule: MVVAW: cyclic compound with recognition strand MVVAW (SEQ ID NO:35), S replaced by A (also: recognition strand of a larger cyclic compound)
fold more potent than the parent linear HYD1 peptide (H929 cells): approximately 10 fold
